The results in this text go back to ChEMBL document CHEMBL1148597, “New tyrosinase inhibitors selected by atomic linear indices-based classification models” (Bioorg Med Chem Lett, 2006).

This assay has as its target T1, Tyrosinase (Homo sapiens, UniProt P14679).
T1 sequence (P14679 whole entry): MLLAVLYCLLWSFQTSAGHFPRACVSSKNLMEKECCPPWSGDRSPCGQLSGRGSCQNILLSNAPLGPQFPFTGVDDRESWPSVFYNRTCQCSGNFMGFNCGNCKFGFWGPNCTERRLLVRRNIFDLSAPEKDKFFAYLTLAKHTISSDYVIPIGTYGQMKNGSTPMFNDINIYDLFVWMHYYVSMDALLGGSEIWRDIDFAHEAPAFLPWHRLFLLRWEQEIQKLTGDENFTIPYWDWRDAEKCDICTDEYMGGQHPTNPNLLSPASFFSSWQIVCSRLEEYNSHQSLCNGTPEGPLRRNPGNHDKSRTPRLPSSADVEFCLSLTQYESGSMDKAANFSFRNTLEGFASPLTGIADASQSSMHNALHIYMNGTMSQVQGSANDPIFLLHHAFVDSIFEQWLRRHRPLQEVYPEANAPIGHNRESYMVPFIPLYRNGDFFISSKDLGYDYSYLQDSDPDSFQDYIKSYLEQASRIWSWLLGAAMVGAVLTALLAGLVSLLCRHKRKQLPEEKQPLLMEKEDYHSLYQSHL
Briefly: Inhibitory activity against tyrosinase.
Usually IC50 stands for the concentration that inhibits the measured activity by half. The molecule `CC(=O)O[C@@H]1[C@@H](O[C@@H]2OC[C@H](O)[C@H](O)[C@H]2O)[C@H](O[C@H]2CC[C@]34C[C@]35CC[C@]3(C)[C@@H]([C@@]6(C)CC[C@H](C(C)(C)O)O6)[C@@H](O)C[C@@]3(C)[C@@H]5C[C@H](O[C@@H]3OC[C@@H](O)[C@H](O)[C@H]3O)[C@H]4C2(C)C)OC[C@H]1O` [ASKENDOSIDE B] displayed an IC50 of 13.9 µM.

Molecule `CC(C)(O)[C@@H]1CC[C@](C)([C@H]2[C@@H](O)C[C@@]3(C)[C@@H]4C[C@H](O[C@@H]5OC[C@@H](O)[C@H](O)[C@H]5O)[C@H]5C(C)(C)[C@@H](O[C@@H]6OC[C@@H](O)[C@H](O)[C@H]6O[C@@H]6OC[C@H](O)[C@H](O)[C@H]6O)CC[C@@]56C[C@@]46CC[C@]23C)O1` [ASKENDOSIDE D] returned an IC50 of 48.9 µM.

In the case of `CC(C)(O)CCC(=O)[C@@](C)(O)[C@H]1[C@H](O)C[C@@]2(C)[C@@H]3CC=C4[C@@H](C=C(O[C@@H]5O[C@H](CO)[C@@H](O)[C@H](O)[C@H]5O)C(=O)C4(C)C)[C@]3(C)C(=O)C[C@]12C` [BRYOAMARIDE], half-maximal inhibition (IC50) was put at 85 µM.

In turn, `C[C@@H]1O[C@@H](O[C@H]2C[C@@H]3[C@]4(CC[C@]5(C)[C@@H]([C@@]6(C)CC[C@@H](C(C)(C)O)O6)[C@@H](O)C[C@@]35C)C[C@@]43CC[C@H](O[C@@H]4OC[C@@H](O)[C@H](O)[C@H]4O)C(C)(C)[C@H]23)[C@H](O)[C@H](O)[C@H]1O` [CYCLOCARPOSIDE] yielded a half-maximal inhibitory concentration (IC50) of 102 µM.

Take `C[C@@H]1C[C@H]2O[C@]3(C[C@@]4(C)[C@@H]5[C@@H](O)C[C@H]6C(C)(C)[C@@H](O[C@@H]7OC[C@@H](O)[C@H](O)[C@H]7O)CC[C@@]67C[C@@]57CC[C@]4(C)[C@@H]13)O[C@@H]2C(C)(C)O[C@@H]1O[C@H](CO)[C@@H](O)[C@H](O)[C@H]1O` [CYCLOORBICOSIDE G]: the midpoint of inhibition, the IC50, lay at 54.6 µM.

`CC(C)(O)[C@@H]1CC[C@](C)([C@H]2[C@@H](O)C[C@@]3(C)[C@@H]4C[C@H](O[C@H]5O[C@@H](CO)[C@H](O)[C@H](O)[C@@H]5O)[C@H]5C(C)(C)[C@@H](O[C@@H]6OC[C@@H](O)[C@H](O)[C@H]6O)CC[C@@]56C[C@@]46CC[C@]23C)O1` [CYCLOSIEVERSIOSIDE] showed an IC50 of 92.3 µM.
